Calls of active or inactive are those of the source. The rule behind the calls is not given here.
Test system: rodent carcinogenicity bioassays, tumor incidence
Assay: CCRIS carcinogenicity studies
Settings: Dose: 0, Dose: 0
How it was run: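 NCI-built, expert-reviewed records of carcinogenicity and related test outcomes (mutagenicity, tumor promotion/inhibition) compiled from published and report sources, historical span 1985-2011, not updated.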

## O=CCCCC=O
Species: MOUSE, Strain/Sex: B6C3F1/FEMALE, Route: INHALATION, 62.5, 125, 250 PPM 6 HR/D 5 D/WK FOR 104 WK (STUDY DURATION: 104 WK), 62.5, 125, 250 PPM 6 HR/D 5 D/WK FOR 104 WK (STUDY DURATION: 104 WK)
  carcinogen call: inactive; negative
Species: MOUSE, Strain/Sex: B6C3F1/FEMALE, Route: INHALATION, 100 PPB 6 HR/D 5 D/WK FOR 52 OR 78 WK (STUDY DURATION: 78 WK)
  carcinogen call: inactive; negative
Species: MOUSE, Strain/Sex: B6C3F1/MALE, Route: INHALATION, 62.5, 125, 250 PPM 6 HR/D 5 D/WK FOR 104 WK (STUDY DURATION: 104 WK), 62.5, 125, 250 PPM 6 HR/D 5 D/WK FOR 104 WK (STUDY DURATION: 104 WK)
  carcinogen call: inactive; negative
Species: MOUSE, Strain/Sex: B6C3F1/MALE, Route: INHALATION, 100 PPB 6 HR/D 5 D/WK FOR 52 OR 78 WK (STUDY DURATION: 78 WK)
  carcinogen call: inactive; negative
Species: RAT, Strain/Sex: F344/FEMALE, Route: ORAL, 50, 250, 1000 PPM IN DRINKING WATER FOR 104 WK (STUDY DURATION: 104 WK), 50, 250, 1000 PPM IN DRINKING WATER FOR 104 WK (STUDY DURATION: 104 WK)
  carcinogen call: inactive; negative
Species: RAT, Strain/Sex: F344/MALE, Route: ORAL, 50, 250, 1000 PPM IN DRINKING WATER FOR 104 WK (STUDY DURATION: 104 WK), 50, 250, 1000 PPM IN DRINKING WATER FOR 104 WK (STUDY DURATION: 104 WK)
  carcinogen call: inactive; negative
Species: RAT, Strain/Sex: F344/N/FEMALE, Route: INHALATION, 250, 500, 750 PPM 6 HR/D 5 D/WK FOR 104 WK (STUDY DURATION: 104 WK), 250, 500, 750 PPM 6 HR/D 5 D/WK FOR 104 WK (STUDY DURATION: 104 WK)
  carcinogen call: inactive; negative
Species: RAT, Strain/Sex: F344/N/MALE, Route: INHALATION, 250, 500, 750 PPM 6 HR/D 5 D/WK FOR 104 WK (STUDY DURATION: 104 WK), 250, 500, 750 PPM 6 HR/D 5 D/WK FOR 104 WK (STUDY DURATION: 104 WK)
  carcinogen call: inactive; negative
Species: Rat, Strain/Sex: Fischer 344/Female (80/Group), Route: Oral, 50, 250, 1000 ppm (0; 5.5; 25.1; 85.9 mg/kg/d) in drinking water for 104 wk, study duration 104 wk, 50, 250, 1000 ppm (0; 5.5; 25.1; 85.9 mg/kg/d) in drinking water for 104 wk, study duration 104 wk, Tumor Site: Type of Lesion: Large granular lymphocyte leukemia (24, 41, 41, 53/100 animals)
  carcinogen call: active; positive
Species: Rat, Strain/Sex: Fischer 344/Male (80/Group), Route: Oral, 50, 250, 1000 ppm (0; 3.6; 17.1; 63.9 mg/kg/d) in drinking water for 104 wk, study duration 104 wk, 50, 250, 1000 ppm (0; 3.6; 17.1; 63.9 mg/kg/d) in drinking water for 104 wk, study duration 104 wk
  carcinogen call: inactive; negative

## CC1(C)CN=C(NN=C(/C=C/c2ccc(C(F)(F)F)cc2)/C=C/c2ccc(C(F)(F)F)cc2)NC1
Species: Mouse, Strain/Sex: CD-1/Female (?/Group), Route: Oral, 25, 50, 100, 200 ppm of 92% hydramethylnon in diet for 18 mo, study duration 18 mo, 25, 50, 100, 200 ppm of 92% hydramethylnon in diet for 18 mo, study duration 18 mo
  carcinogen call: inactive; negative
Species: Mouse, Strain/Sex: CD-1/Male (?/Group), Route: Oral, 25, 50, 100, 200 ppm of 92% hydramethylnon in diet for 18 mo, study duration 18 mo, 25, 50, 100, 200 ppm of 92% hydramethylnon in diet for 18 mo, study duration 18 mo
  carcinogen call: inactive; negative
Species: Rat, Strain/Sex: CD/Female (50/Group), Route: Oral, 25, 50, 100, 200 ppm in diet for 2 yr, study duration 2 yr, 25, 50, 100, 200 ppm in diet for 2 yr, study duration 2 yr
  carcinogen call: inactive; negative
Species: Rat, Strain/Sex: CD/Male (50/Group), Route: Oral, 25, 50, 100, 200 ppm in diet for 2 yr, study duration 2 yr, 25, 50, 100, 200 ppm in diet for 2 yr, study duration 2 yr
  carcinogen call: inactive; negative

## CN1COCN(Cc2cnc(Cl)s2)/C1=N/[N+](=O)[O-]
Species: MOUSE, Strain/Sex: TIF:MAGF/MALE, Route: DIET, 50, 200, 500, 1250, 2500, 5000 PPM IN DIET FOR UP TO 50 WKS (STUDY DURATION: 50 WKS), 50, 200, 500, 1250, 2500, 5000 PPM IN DIET FOR UP TO 50 WKS (STUDY DURATION: 50 WKS)
  carcinogen call: inactive; negative for tumors but apoptosis and necrosis observed in liver at doses of 500
Species: RAT, Strain/Sex: TIF:RAIF/FEMALE, Route: ORAL (DIET), 1000, 3000 PPM FOR 1, 10, 20, 30, 40, OR 50 WKS, 1000, 3000 PPM FOR 1, 10, 20, 30, 40, OR 50 WKS
  carcinogen call: inactive; negative

## CC(C)(c1ccc(O)cc1)c1ccc(O)cc1 (tested in a mixture with another compound)
Species: MOUSE, Strain/Sex: CF-1/FEMALE, Route: DERMAL, 1, 10% EPIKOTE 828 IN ACETONE (TOTAL DOSE 0.2 ML) 2/WK APPLIED TO DORSAL SKIN FOR DURATION OF STUDY (STUDY DURATION:, 1, 10% EPIKOTE 828 IN ACETONE (TOTAL DOSE 0.2 ML) 2/WK APPLIED TO DORSAL SKIN FOR DURATION OF STUDY (STUDY DURATION:, Tumor Site: Type of Lesion: HEMATOPOIETIC SYSTEM: RETICULUM-CELL SARCOMA, LYMPHOBLASTIC LYMPHOSARCOMA
  carcinogen call: active; positive
Species: MOUSE, Strain/Sex: CF-1/FEMALE, Route: DERMAL, 1, 10% EPON 828 IN ACETONE (TOTAL DOSE 0.2 ML) 2/WK APPLIED TO DORSAL SKIN FOR DURATION OF STUDY (STUDY DURATION: 2 Y, 1, 10% EPON 828 IN ACETONE (TOTAL DOSE 0.2 ML) 2/WK APPLIED TO DORSAL SKIN FOR DURATION OF STUDY (STUDY DURATION: 2 Y
  carcinogen call: inactive; negative
Species: MOUSE, Strain/Sex: CF-1/MALE, Route: DERMAL, 1, 10% EPIKOTE 828 IN ACETONE (TOTAL DOSE 0.2 ML) 2/WK APPLIED TO DORSAL SKIN FOR DURATION OF STUDY (STUDY DURATION:, 1, 10% EPIKOTE 828 IN ACETONE (TOTAL DOSE 0.2 ML) 2/WK APPLIED TO DORSAL SKIN FOR DURATION OF STUDY (STUDY DURATION:
  carcinogen call: inactive; negative
Species: MOUSE, Strain/Sex: CF-1/MALE, Route: DERMAL, 1, 10% EPON 828 IN ACETONE (TOTAL DOSE 0.2 ML) 2/WK APPLIED TO DORSAL SKIN FOR DURATION OF STUDY (STUDY DURATION: 2 Y, 1, 10% EPON 828 IN ACETONE (TOTAL DOSE 0.2 ML) 2/WK APPLIED TO DORSAL SKIN FOR DURATION OF STUDY (STUDY DURATION: 2 Y
  carcinogen call: inactive; negative

## CCC1C(c2ccc(O)cc2)=C(C)c2cc(O)ccc21 (configuration not stated)
Species: HAMSTER, Strain/Sex: SYRIAN/MALE, Route: SUBCUTANEOUS IMPLANT, 20 MG IN PELLETS IMPLANTED EVERY 2.5 MO FOR 9 MO (STUDY DURATION: 9 MO), Tumor Site: Type of Lesion: KIDNEY: TUMOR
  carcinogen call: active; positive

## COc1ccc2c3c(cccc13)OC([N+](=O)[O-])=C2
Species: RAT, Strain/Sex: WISTAR/MALE, Route: SUBCUTANEOUS, 0.5 MG IN DMSO 1/WK FOR DURATION OF STUDY (TOTAL DOSE: 0; 10.23 MG) (STUDY DURATION: 156 D), 0.5 MG IN DMSO 1/WK FOR DURATION OF STUDY (TOTAL DOSE: 0; 10.23 MG) (STUDY DURATION: 156 D), Tumor Site: Type of Lesion: INJECTION SITE: FIBROSARCOMA
  carcinogen call: active; positive
